# From patent US20250062040A1, “COMPUTER-BASED SYSTEMS FOR ACQUIRING AND ANALYZING OBS[…] DATA” (priority 2021, published 2025)
# What was measured:
# [1] = system: Q175 heterozygous (HET) mice model of Huntington Disease; experiment: DBSA query with Q175 HET target signature; assay type: in vivo; conditions: Q175 HET at 6 months vs WT
# From the text: In some embodiments, illustrative computing devices of present disclosure can be programmed with one or more techniques of the present disclosure to screen active reference compounds against an animal model of a neurodegenerative disease. As an example, in an application of DBSA, the Q175 heterozygous (HET) mice model of Huntington Disease was used to generate a target signature. Male and female cohorts of the Q175 HET model mice at 6 months were compared against the associated wild type (WT) controls. The DBSA Target signature model for the Q175 HET at 6 months is, for example, illustrated in FIG. 56. The target signature was used to query a database containing list signatures for reference compounds profiled at multiple doses.
# (§1) Of interest was the identification of the atypical antidepressant tianeptine, currently not used for the treatment of HD in the clinic. […] A control group of WT mice was treated equally with saline. […] The beneficial effect of tianeptine was quantified using DRFA, which transforms the original subject feature profile to a non-redundant, decorrelated ranked 2D features space. The non-redundant decorrelated ranked features space was used to calculate the discrimination between control (WT treated with saline) and disease group (Q175 HET group treated with saline). The disease group (Q175 HET) treated with tianeptine was then projected onto this 2D space and its proximity to the control group was calculated.
# [2] = SmartCube diagonal index (DD) similarity ranking and psychedelic profile; assay type: in vivo; conditions: ranked among 90 reference drugs
# From the text: The similarity score for each of the dose-dose pairs of the T and R drugs was computed and used to calculate the diagonal index for each T-R drug pair or DDTiRj. For each Ti drug, the Rj drugs were then ranked by the corresponding DDTiRj.
# [3] = DBSA query with scopolamine target signature; assay type: in vivo
# From the text: In some embodiments, illustrative computing devices of the present disclosure can be programmed with one or more techniques of the present disclosure to identify a novel cognitive enhancer compound by querying a large library of compounds profiled in by a behavioral platform. This example is based on a hypothesis that compounds with a drug-induced behavioral data profile that is reversed to that of scopolamine, which impairs cognition, are potentially cognitive enhancers. Other ways to impair cognition, such as other drugs or genetic manipulations, can be used to generate similar hypotheses.
# The target signature was used to query a library of list signatures associated with active library and reference compounds to rank the compounds by their capacity to reverse the behavioral response to scopolamine.
# [4] = SmartCube / behavioral platform total activity and Class signature; assay type: in vivo
# From the text: In some embodiments, one or more techniques described herein may quantify at least one activity score that may be quantified based on a discriminability score between at least two datasets, where the discriminability score may refer to an accuracy of a classifier, or a quantity derived therefrom. At least one dataset is a control group. In some embodiments, one or more techniques described herein may quantify at least one similarity value, which is the complement of the at least one activity value, where at least two groups are compared.
# In some embodiments, one or more techniques described herein may calculate the activity score between the two groups using, for example, without limitation, a binary machine learning classifier. In some embodiments, a discriminability score of the at least two groups, as assessed by the classifier, may be used as the at least one activity score, representing how phenotypically different the two groups are. For example, the at least two groups may refer to a treatment group and a vehicle group associated with the at least two datasets.
# In some embodiments, one or more techniques described herein may utilize a machine learning algorithm to perform the following steps: obtaining a plurality of subsamples, where a number, k, of iterations of the plurality of subsamples of a larger group match sample size n of a smaller group. […]
# [5] = psychedelic-related behaviors (HTR, ESH, ELO) in behavioral platform videos; assay type: in vivo, mice
# From the text: FIG. 71 illustrates a response curve for R-(−)-4-iodo-2,5-dimethoxyamphetamine (DOI), showing anxiolytic, another therapeutic signal, and the head twitch response (HTR) in accordance with one or more embodiments of the present disclosure. FIG. 71 represents a signature of DOI in a behavioral platform, where multiple classes can be collapsed into a few classes of interest. For example, multiple classes can be collapsed into five classes of interest for simplicity.
# In some embodiments, the first step may be to generate a collection of ground-truth examples by manually identifying features corresponding to behaviors of interest (e.g., using a labelling software or platform to add labels identifying such features). Each experimental session can be recorded in terms of precise start and end frame which can set the predefined duration of the experimental session. For manual identification purposes, the system may use a top camera view, at a 50% slower viewing speed, although other angles from the other cameras and other sensors such as piezoelectric and thermal sensors may also be used, and the resulting data integrated. Class analysis (e.g., FIG. 71), on the other hand, may include data acquired from all sensors of a behavioral platform.
# The disclosed embodiments can extract behavioral features corresponding to exemplary behaviors. The disclosed embodiments are not limited to any particular implementation of these features. In some embodiments, a behavioral feature can be implemented as a time-stamped indication that a behavior occurred at that time, or a Boolean value in a time series indicating the occurrence of a behavior. In some embodiments, a training dataset including observational data and corresponding, manually identified features can be used to train the machine learning classifier.
# FIG. 76 illustrates graphs illustrating a quantification of psychedelic-related behaviors detected in behavioral platform videos: ear scratch with hind paw (ESH), head twitch response (HTR), and elongation-contraction (ELO) for LSD and DOI at two doses in accordance with one or more embodiments of the present disclosure. FIG. 76 indicates a number of occurrences of HTRs, ESH, and ELOs, in behavioral platform videos of mice treated with DOI, LSD or vehicle, in triplicates, were recorded during the periods of rest for a total of 12 minutes for each subject.
# [6] = eye temperature by automated thermographic system of behavioral platform; assay type: in vivo, mice; conditions: various doses, FIG. 39
# From the text: In some embodiments, with regard to image calibration, in an experimental session, actual Peltier temperatures may be logged and saved along with the thermal camera video. The logged Peltier temperatures in Celsius can be paired to the optical density (OD) levels measured at the two Peltier ROIs in each corresponding frame, so that a linear calibration curve can be used to convert the OD of measured eye ROIs to degrees Celsius.
# In some embodiments, the subject body, such as a mouse, can be segmented based on the optical density distribution on each frame. The contour of the mouse can be masked by finding the largest eight-connected objects in the binarized image as shown in FIG. 36. […] The size of the eye region relative to the mask and shape properties such as ‘Eccentricity’ (ratio of the distance between the foci of the ellipse and its major axis length) and ‘Solidity’ (proportion of the pixels in the convex hull that are also in the region, computed as Area/ConvexArea) can be measured to filter out false positives, when those parameters may be outside of the range learned from manually annotated ground truth examples.
# In some embodiments, with regard to feature extraction, the average OD of automatically detected eye ROIs can be converted to Celsius based on the calibration curve. […]
# [7] = system: Q175 HET mice; experiment: treatment of Q175 HET mice, recovery quantified using DRFA; assay type: in vivo; conditions: 20 mg/kg, FIG. 62
# Method: as §1
# [8] = pEEG deep learning drug class classifier; assay type: in vivo; conditions: classifier trained with a set that did not include the drug, FIG. 25
# From the text: Briefly, the network may be based on a bidirectional Long Short-Term Memory (LSTM, 32 hidden units) layer, two fully connected layers (“elu and “softmax” activations), batch normalization and dropout layers. The model may be trained using cross-entropy loss function and “adam” optimizer, for at least 30-50 epochs. The last layer of the model may be a dense layer, which may provide probabilities for more than a dozen drug classes.
# In some embodiments, to improve the robustness of the predictive model, independent implementations of a general model architecture may be built by randomly initializing the weights for the RNN. Final predictions may be derived from the model with highest accuracy, or from the average such as the median or mean results from all trained models. To check the accuracy of the resulting model system, different cross validation approaches may be used such as a n-samples-out, or n-doses-out, and/or a whole-drug-out, where an n-samples subset, an n-doses subset, and/or a whole drug, respectively, may be systematically removed from the training dataset, and the rest of the drugs may be used for training a new model. The excluded data may then be used for model validation as a test set. Model prediction may be done at a sample level, so as to get a prediction for a given drug-dose. […]
# [9] = periods of rest, total 12 minutes per subject, vs vehicle, two doses, FIG. 76
structure (smiles),measurement,setting,value
COC(=O)C(c1ccccc1)C1CCCCN1 (centres unmarked) [methylphenidate],DBSA prediction against Q175 HET target signature,[1],top predictions
CN1C(=O)CN=C(c2ccccc2)c2cc(Cl)ccc21 [diazepam],rank of diagonal index DDTT (similarity of a second run to a previous run of the same drug),[2],third out of 90
COc1cc2c(cc1OC)C(=O)C(CC1CCN(Cc3ccccc3)CC1)C2 (centres unmarked) [donepezil],DBSA reverse list signature to scopolamine target signature,[3]; FIG. 60,among the top reverse list signature predictions
NC(=O)C[S+]([O-])C(c1ccccc1)c1ccccc1 (centres unmarked) [modafinil],DBSA prediction against Q175 HET target signature,[1],top predictions
"CCN(CC)C(=O)[C@@H]1C=C2c3cccc4[nH]cc(c34)C[C@H]2N(C)C1 [LSD, lysergic acid diethylamide]",total activity as a function of dose,"[4]; calculated against vehicle control, activity rescaled 0% to 100%, threshold 70%, FIG. 64",only the 3 mg/kg and 5 mg/kg being different from vehicle in a statistically significant manner
same,rank of diagonal index DDTT (similarity of a second run to a previous run of the same drug),[2],very high
same,number of occurrences of ear scratches (ESH),[5]; [9],did not result in occurrences of ear scratches
same,number of occurrences of elongation-contraction (ELO),[5]; [9],significant increase in the number of ELOs
"CNC(C)Cc1ccc2c(c1)OCO2 (centres unmarked) [MDMA, 3,4-methylenedioxymethamphetamine]",eye temperature,[6],dose-dependent increase of eye temperature
"COc1cc(C[C@@H](C)N)c(OC)cc1I [DOI, R-(−)-4-iodo-2,5-dimethoxyamphetamine]",class signal of behavioral platform classifier,"[4]; FIG. 71, classes collapsed into five classes",predominant anxiolytic therapeutic signal
same,head twitch response (HTR) dose-response,"[5]; FIG. 71, two doses",high at both doses
same,number of occurrences of HTRs,[5]; [9],most robust increase
same,number of occurrences of ear scratches (ESH),[5]; [9],most robust increase
CN1c2ccccc2C(NCCCCCCC(=O)O)c2ccc(Cl)cc2S1(=O)=O (centres unmarked) [tianeptine],DBSA prediction against Q175 HET target signature,[1],novel prediction
same,rescue of behavioral phenotype of Q175 HET mice,[7]; acutely,significantly rescued the behavioral phenotype
same,rescue of behavioral phenotype of Q175 HET mice,[7]; chronically (4-week regimen),significantly rescued the behavioral phenotype
CN(C)CCC=C1c2ccccc2CCc2ccccc21 [Amitriptyline],therapeutic class signature by pEEG classifier,[8],clean antidepressant signal
CN1[C@@H]2C[C@@H](OC(=O)[C@H](CO)c3ccccc3)C[C@H]1[C@@H]1O[C@@H]12 [scopolamine],DBSA similarity to scopolamine target signature,"[3]; FIG. 59, at a different dose than the one used for the DBSA model",among the most similar compounds
CC(NC(C)(C)C)C(=O)c1cccc(Cl)c1 (centres unmarked) [bupropion],therapeutic class signature by pEEG classifier,[8],more stimulant profile
same,DBSA prediction against Q175 HET target signature,[1],top predictions
